{"source": "paper PMC11861483", "about": "“Genetic characterization of the AHAS mutant line K4 with resistance to AHAS-inhibitor herbicides in rapeseed (Brassica napus L.)” (Stress Biology, 2025)", "target": "T1, BnAHAS3 (ZS9) (Brassica napus, UniProt P27819)", "T1 construct": "native, isolated and purified from total protein of ZS9 seedlings; AHAS on SDS-PAGE about 58-66 kD; immobilised on CM5 chip", "T1 sequence (P27819 70-652)": "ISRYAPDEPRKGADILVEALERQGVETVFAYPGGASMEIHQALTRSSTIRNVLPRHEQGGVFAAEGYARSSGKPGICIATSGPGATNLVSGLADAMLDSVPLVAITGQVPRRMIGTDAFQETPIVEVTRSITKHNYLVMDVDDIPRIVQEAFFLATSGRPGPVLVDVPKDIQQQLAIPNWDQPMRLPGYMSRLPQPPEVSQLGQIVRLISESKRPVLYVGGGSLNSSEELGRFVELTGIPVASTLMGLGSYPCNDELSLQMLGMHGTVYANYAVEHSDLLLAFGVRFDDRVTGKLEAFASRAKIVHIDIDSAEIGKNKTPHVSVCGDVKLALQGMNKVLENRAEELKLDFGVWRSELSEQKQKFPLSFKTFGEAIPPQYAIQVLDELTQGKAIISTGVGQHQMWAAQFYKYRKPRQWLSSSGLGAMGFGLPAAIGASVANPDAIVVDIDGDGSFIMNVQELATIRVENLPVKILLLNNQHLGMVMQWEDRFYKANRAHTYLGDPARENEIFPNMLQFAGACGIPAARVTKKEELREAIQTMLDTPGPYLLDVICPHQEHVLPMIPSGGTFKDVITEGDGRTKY", "test": "surface plasmon resonance (Biacore T200, CM5 chip), kinetic fit kd/ka", "type": "binding", "conditions": "read-out: Tribenuron-methyl / KD", "excerpt": "surface plasmon resonance (Biacore T200, CM5 chip), kinetic fit kd/ka on BnAHAS3 (ZS9)", "note": "pKd: −log10 of the molar value.", "data": [{"smiles": "COC(=O)c1ccccc1S(=O)(=O)NC(=O)N(C)c1nc(C)nc(OC)n1", "note": "[tribenuron-methyl]", "values": [{"measurement": "pKd", "value": 4.48}]}]}
